melting point [°C]	Compound
146 to 148	COc1cc2[nH]c(N(C)Cc3cccc(OCCO)c3)nc(=O)c2c(OC)c1OC
105	CCC1c2ccccc2-c2cc(-c3cccc(O)c3)ccc2N1S(=O)(=O)c1ccc(O)cc1 (centres undefined)
128	CC(=O)Nc1ccc([N+](=O)[O-])cc1OC[Si](C)(C)C
142 to 143	Cc1nc(Cl)c2c(n1)N(C)C(=O)CO2
185 to 187	COc1ccc(-c2n[nH]c3c2sc2ccccc23)cc1
95 to 96	CCOC(=O)c1cn(Cc2ccccc2)nc1OCc1cccc(OCc2nc(-c3ccccc3)oc2C)c1
149 to 151	CC(=O)NCc1ccc(-c2ccc([N+](=O)[O-])cc2)o1
65 to 66	CC(=O)NCCc1cn(S(=O)(=O)c2ccc(C)cc2)c2ccc(OCCN3CCCCC3)cc12
129 to 131	COc1ccc(N(CCC(=O)N(C)CC(=O)O)C(=O)c2ccc(Cl)cc2)cc1
137	COc1ccc(CCC(=O)Nc2ccccc2C(=O)O)cc1OC
264 to 271	CC(C)(O)Cn1c(CO)nc2c(N)nc3ccccc3c21
145 to 146	FC(F)(F)c1cccc(N2CCN(Cc3cn4cc(Cl)ccc4n3)CC2)c1
166 to 167	CC1(C)C(=O)N(c2ccc(C#N)c(Cl)c2)C(=O)N1CCCCCN1C(=O)N(c2ccc(C#N)c(Cl)c2)C(=O)C1(C)C
65 to 67	c1ccc(CSc2cnccn2)cc1
141 to 143	COc1ccc(NCC(=O)N2CCC(Cc3ccc(F)cc3)CC2)cc1
245	O=C1NC(O)(C(Cl)(Cl)Cl)NC1=O
141	CCOC(=O)C(c1c(Cl)ccc(Cl)c1Cl)N(C(=O)CCl)c1ccc(Br)cc1 (centres undefined)

melting point [°C]	Compound
202 to 203	CC(C)n1c(=O)ccc2cnc(Nc3cccc([N+](=O)[O-])c3)nc21
124 to 125	Cc1cc(-c2nc3cc(OCCOC(C)C)cc(OCCOC(C)C)c3c(=O)[nH]2)cc(C)n1
166	COC(=O)C1c2ccccc2N(C)c2ccc(Cl)cc21 (centres undefined)
77 to 78	COC(=O)c1ccc2cccc(OS(=O)(=O)C(F)(F)F)c2n1
155 to 157	CC(=O)c1cccc(NC(=O)C2CCC2)c1
51 to 53	ClC=C(Cl)n1c2ccccc2c2ccccc21
141 to 142	CNC(=O)CC1c2cc(C#N)ccc2OC(C)(C)C1O (centres undefined)
105 to 106	CCCCc1cc2cc(NS(C)(=O)=O)ccc2o1
141 to 143	CC(O)c1cc(-c2ccc(Cl)cc2)no1 (centres undefined)
193 to 196	CC[C@H](C)[C@@H]1NC(=S)c2ccccc2/C1=C/C(=O)OC
96 to 101	CC(C)C(c1cccc(NC(=O)OCc2ccccc2)c1)c1c(O)c2c(oc1=O)CCCCCC2 (centres undefined)
51 to 52	CC(CC1CCCCC1)C(=O)COS(=O)(=O)c1ccccc1 (centres undefined)
230 to 233	CC(=O)c1csc(C(=O)C2C(=O)N(C(N)=O)c3ccc(Cl)cc32)c1 (centres undefined)
58 to 59	Cc1cccc(OC(=O)N2CCCC2=O)c1
208 to 209	Cc1nc(-c2ccc(Br)cc2)n(-c2ccc(S(C)(=O)=O)cc2)n1
197 to 199	O=C(NCc1cocn1)c1ccnc(N2CCN(Cc3ccc(F)cc3)C2=O)c1
55 to 56	C=CC(=O)OCc1cn(-c2ccccc2)nn1

Second part, the compound before the results:

Compound	melting point [°C]
CS(=O)(=O)c1ccc(-n2nc(C(F)(F)F)cc2-c2ccc(-c3nccs3)cc2)cc1	206 to 207
FC(F)(F)c1ccc(-c2cc(Oc3cccc4ccncc34)ncn2)cc1	194 to 195
[N-]=[N+]=NC1CCc2ccccc2C1NC(=O)OCc1ccccc1 (centres undefined)	104
Cc1cc(C)cc(C(=O)N2CCC(=O)CC2Cc2ccccc2)c1 (centres undefined)	108
COc1ccc2cnc(Nc3ccccc3)nc2c1C1CCCC1	187 to 188
COc1ccc(C(=O)Nc2ccccc2)c2c1OCC2CC(=O)OCc1ccccc1 (centres undefined)	179 to 180
COc1ccc(C(=O)Nc2c(Cl)cncc2Cl)c2c1OCC2CC(=O)NCc1ccccc1Cl (centres undefined)	288 to 289
COc1ccc(-c2c(Cl)c(CN3C(=O)CCC3=O)nc3sc4c(c23)CC/C(=N/O)C4)cc1	248 to 249
COC(=O)c1ccc(C(=O)NCc2cccc(O)c2)cc1C	100 to 103
C=C(c1ccc(C(=O)OC)cc1)N1CC1C(N)=O (centres undefined)	149 to 150
COc1ccc(-c2sc3c(c2C)c(=O)c(C(C)=O)cn3Cc2ccccc2F)cc1	215 to 216
CC(C)N1C(=O)N(c2ccc(C#N)c(C(F)(F)F)c2)C(=O)C1(CF)CF	153 to 154
CC1=CC(O)C(O)C(C)(C)CC1OC(=O)c1ccccc1 (centres undefined)	94 to 96
Fc1ccc(-c2cc(NCc3cccc(NCc4ccccc4)n3)n[nH]2)cc1	117 to 118
COC(=O)c1ccc(-c2cc(-c3ccc4c(c3)C(C)(C)CCC4(C)C)[nH]n2)cc1	155 to 156
Cc1cc(CC(=O)N[C@H]2CC[C@H](CCN3CCN(c4nccc5c4CCO5)CC3)CC2)on1	172
CCOc1ccc(C=C(CSC(C)=O)C(=O)NCCC(=O)OCc2ccccc2)cc1	92
NC(=Nc1ccc(CCNC(=O)c2cc(N)ccc2O)cc1)c1cccs1	> 260
CC(C)OC(=N)c1sc2ccccc2c1O	208
CCC(=O)NCC1CC1c1cccc2nc(C)nn12 (centres undefined)	118 to 119

Compound	melting point [°C]
Cc1nc(N2CCN(Cc3ccccc3)C2=O)sc1C(=O)NCc1cc(F)ccc1F	176 to 177
NNC(=O)c1cnn(-c2ccc(N(CCO)CCO)nn2)c1N	217 to 219
CC(=O)c1ccc(Nc2c3ccccc3nc3occc23)cc1	220 to 221
COc1ccc(S(=O)(=O)CC(C)=CCOC(C)=O)cc1	54 to 56
CCCCC1CCC(C2=C(Cl)C(=O)c3ccccc3C2=O)CC1 (centres undefined)	107 to 110
CC(C)(C)OC(=O)NC(CC(=O)NC1CC1)C1CC1 (centres undefined)	166 to 168
NC(=O)C1CCCc2c(C(=O)O)cccc21 (centres undefined)	247 to 249
C#CCOc1cc(C=O)ccc1OC	66 to 67
CCOC(=O)c1ccc(NCCOc2ccc(F)cc2)cc1	122 to 123
O=C1CC(CSc2nc3ccccc3s2)C(=O)O1 (centres undefined)	87 to 88
Cc1ccc(Cc2cnc(NCCCNc3ncccc3Cl)[nH]c2=O)cn1	91 to 94
OCCC1c2ccccc2C(O)=NN1c1cccc(C(F)(F)F)c1 (centres undefined)	183 to 184
CCNc1c(C(=O)OCC)c(C)nc(Cl)c1[N+](=O)[O-]	36 to 37
O=C(O)CNC(=O)c1cn2nc(NCCCN3CCC(OC(c4ccccc4)c4ccccc4)CC3)ccc2n1	171
O=C(CBr)Nc1ccccc1	131 to 135
CC1C(=CO)C(=O)c2c(O)cc(OCCCCc3ccccc3)cc2N1C=O (centres undefined)	101 to 103
CC(=NO)C(C)(C)NCC(CNC(C)(C)C(C)=NO)CC(O)CC1([N+](=O)[O-])N=CC=N1 (centres undefined)	185 to 187
CCCC(=NO)c1ccc(OCOC)cc1	74 to 76
O=c1ccc(-c2cccc(-n3ccnc3)c2)n[nH]1	234 to 236
CSc1sc(-c2cn[nH]c2)c2c1C(=O)CC(C)(C)C2	213 to 215
